# Results taken from ChEMBL document CHEMBL2010681, “Synthesis and SAR study of 4-arylpiperidines and 4-aryl-1,2,3,6-tetrahydropyridines as 5-HT₂C agonists” (Bioorg Med Chem Lett, 2012).
# How the values were obtained:
# [1] = molecular target: T1, 5-hydroxytryptamine receptor 2C (Homo sapiens) (UniProt P28335); assay: Displacement of [3H]-mesulergine from 5HT2C receptor expressed in CHO cell membranes at 10 uM after 90 mins by scintillation counting
# T1 sequence (whole entry): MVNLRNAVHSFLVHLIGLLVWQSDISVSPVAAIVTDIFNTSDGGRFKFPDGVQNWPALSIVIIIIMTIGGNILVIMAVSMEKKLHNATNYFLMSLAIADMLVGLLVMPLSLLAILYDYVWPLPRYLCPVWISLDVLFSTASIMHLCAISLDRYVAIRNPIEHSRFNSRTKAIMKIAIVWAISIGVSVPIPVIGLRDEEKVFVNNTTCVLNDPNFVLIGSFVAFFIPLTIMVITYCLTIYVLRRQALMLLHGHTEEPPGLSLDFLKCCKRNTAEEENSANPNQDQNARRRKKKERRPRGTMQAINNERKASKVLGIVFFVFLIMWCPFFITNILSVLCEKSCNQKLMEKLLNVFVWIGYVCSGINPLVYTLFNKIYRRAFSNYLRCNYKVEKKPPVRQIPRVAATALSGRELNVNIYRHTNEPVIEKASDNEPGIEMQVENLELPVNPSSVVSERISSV
# [2] = molecular target: T1, 5-hydroxytryptamine receptor 2C (Homo sapiens); assay: Displacement of [3H]-mesulergine from 5HT2C receptor expressed in CHO cell membranes at 1 uM after 90 mins by scintillation counting
# [3] = molecular target: T2, 5-hydroxytryptamine receptor 2C (Homo sapiens, UniProt P28335); assay: Displacement of [3H]-mesulergine from 5HT2C receptor expressed in CHO cell membranes after 90 mins by scintillation counting
# T2 sequence (P28335 whole entry): T1 sequence (whole entry)
# [4] = molecular target: T2, 5-hydroxytryptamine receptor 2C; assay: Agonist activity at 5HT2C receptor expressed in CHO cells by fluorescence based calcium mobilization assay; type: functional, cell-based
# [5] = molecular target: T2, 5-hydroxytryptamine receptor 2C; assay: Displacement of [3H]-mesulergine from 5HT2C receptor expressed in CHO cell membranes using 11 concentration of ligand after 90 mins by scintillation counting using complete competition binding curves analysis
Compound,inhibition [1] [%],inhibition [2] [%],Ki [3] [nM],EC50 ([4]; cho),Ki [5] [nM],EC50 ([4]; read-out: EC50) [nM]
COc1ccc(C2CCNCC2)cc1.Cl,9,3,> 10000,Not Active,,
Cc1cccc(C2CCNCC2)c1C.Cl,,,1160,Not Active,,
O=C(O)C(F)(F)F.c1cc2c(c(C3CCNCC3)c1)CCCC2,,,55,Not Active,43,
Cl.Clc1ccc(C2CCNCC2)cc1,,,> 10000,Not Active,,
Clc1ccc(C2=CCNCC2)cc1,62,17,3100,,,1760
Clc1cccc(C2CCNCC2)c1,83,37,931,,1430,790
Cc1ccccc1C1CCNCC1.Cl,65,10,3170,Not Active,,
Cl.Fc1ccc(C2CCNCC2)cc1,,,> 10000,Not Active,,
Cl.c1ccc(C2CCNCC2)cc1,16,6,> 10000,Not Active,,
O=C(O)C(F)(F)F.c1ccc2c(C3CCNCC3)cccc2c1,,,60,Not Active,72,
Clc1ccccc1C1=CCNCC1.O=C(O)C(F)(F)F,,,,Not Active,,
CN(C)c1ccc(C2CCNCC2)cc1.Cl,,,> 10000,Not Active,,
Clc1cccc(C2=CCNCC2)c1,95,65,280,,318,72.3
Cc1cccc(C2CCNCC2)c1,63,15,3130,,,2000
Cl.FC(F)(F)c1ccc(C2CCNCC2)cc1,,,8320,Not Active,,
Brc1ccc(C2=CCNCC2)cc1,65,22,2540,,,3520
FC(F)(F)c1cccc(C2CCNCC2)c1,77,26,1550,,,1260
C1=C(c2c[nH]c3ccccc23)CCNC1,95,64,296,,632,163
Cl.Clc1ccccc1C1CCNCC1,,,,Not Active,,
C1=C(c2ccccc2)CCNC1,42,9,7180,,,2450
COc1cccc(C2CCNCC2)c1.Cl,,,6190,Not Active,,
Cl.FC(F)(F)c1ccccc1C1CCNCC1,,,826,Not Active,,
Cl.Oc1cccc(C2CCNCC2)c1,,,> 10000,Not Active,,
Cc1ccc(C2CCNCC2)cc1.Cl,33,9,> 10000,Not Active,,
c1ccc2c(C3CCNCC3)c[nH]c2c1,92,60,366,,612,128
COc1ccccc1C1CCNCC1.Cl,74,23,1800,Not Active,,
FC(F)(F)c1cccc(C2=CCNCC2)c1,93,65,298,,365,158
